Our source for the IC50 values is patent US10239873B2, “7-azaindole or 4,7-diazaindole derivatives as IKKϵ epsilon and TBK1 inhibitor and pharmaceutical composition comprising same” (GREEN CROSS CORPORATION, priority 2015, dated 2019).

The target of one assay is T1, IKKε (Homo sapiens, UniProt Q14164).
T1 construct: purchased Promega and/or Invitrogen V4158; PR8031B; V3991 (not assigned to the two kinases)
T1 sequence (Q14164 1-716): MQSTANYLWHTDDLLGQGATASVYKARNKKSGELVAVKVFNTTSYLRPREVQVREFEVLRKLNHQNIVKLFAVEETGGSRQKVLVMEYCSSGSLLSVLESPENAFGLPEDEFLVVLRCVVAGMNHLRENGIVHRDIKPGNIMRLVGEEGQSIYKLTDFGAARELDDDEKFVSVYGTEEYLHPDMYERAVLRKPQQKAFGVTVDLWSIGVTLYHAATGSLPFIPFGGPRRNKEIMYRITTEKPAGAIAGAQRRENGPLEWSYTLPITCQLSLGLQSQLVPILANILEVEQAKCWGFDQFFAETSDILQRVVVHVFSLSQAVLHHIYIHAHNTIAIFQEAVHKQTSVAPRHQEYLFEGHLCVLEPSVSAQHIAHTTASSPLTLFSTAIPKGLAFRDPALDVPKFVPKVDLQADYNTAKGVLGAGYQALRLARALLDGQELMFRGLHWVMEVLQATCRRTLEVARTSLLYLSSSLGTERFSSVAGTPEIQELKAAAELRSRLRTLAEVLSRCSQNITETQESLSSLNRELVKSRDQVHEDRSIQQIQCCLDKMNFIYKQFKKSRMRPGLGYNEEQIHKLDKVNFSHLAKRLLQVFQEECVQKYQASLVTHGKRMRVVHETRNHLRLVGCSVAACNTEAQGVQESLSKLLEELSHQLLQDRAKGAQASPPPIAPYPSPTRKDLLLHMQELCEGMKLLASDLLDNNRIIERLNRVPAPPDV
Nature of the assay: ADP-Glo Kinase Assay, inhibition activity on IKKε. It counts as biochemical. Put shortly:
(§1)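 Kinase activity measured with the ADP-Glo luminescent ADP-detection kit per manufacturer's protocol, using IKKε or TBK1 kinase enzyme systems. Reaction buffer: 40 mM Tris (pH 7.5), 20 mM MgCl2, 0.1 mg/mL BSA; luminescence read on a luminometer.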

The target of another assay is T2, TBK1 (Homo sapiens, UniProt Q9UHD2).
T2 construct: purchased Promega (Invitrogen is also named in the same bracket) V4158; PR8031B; V3991 (not assigned to the two kinases)
T2 sequence (Q9UHD2 1-729): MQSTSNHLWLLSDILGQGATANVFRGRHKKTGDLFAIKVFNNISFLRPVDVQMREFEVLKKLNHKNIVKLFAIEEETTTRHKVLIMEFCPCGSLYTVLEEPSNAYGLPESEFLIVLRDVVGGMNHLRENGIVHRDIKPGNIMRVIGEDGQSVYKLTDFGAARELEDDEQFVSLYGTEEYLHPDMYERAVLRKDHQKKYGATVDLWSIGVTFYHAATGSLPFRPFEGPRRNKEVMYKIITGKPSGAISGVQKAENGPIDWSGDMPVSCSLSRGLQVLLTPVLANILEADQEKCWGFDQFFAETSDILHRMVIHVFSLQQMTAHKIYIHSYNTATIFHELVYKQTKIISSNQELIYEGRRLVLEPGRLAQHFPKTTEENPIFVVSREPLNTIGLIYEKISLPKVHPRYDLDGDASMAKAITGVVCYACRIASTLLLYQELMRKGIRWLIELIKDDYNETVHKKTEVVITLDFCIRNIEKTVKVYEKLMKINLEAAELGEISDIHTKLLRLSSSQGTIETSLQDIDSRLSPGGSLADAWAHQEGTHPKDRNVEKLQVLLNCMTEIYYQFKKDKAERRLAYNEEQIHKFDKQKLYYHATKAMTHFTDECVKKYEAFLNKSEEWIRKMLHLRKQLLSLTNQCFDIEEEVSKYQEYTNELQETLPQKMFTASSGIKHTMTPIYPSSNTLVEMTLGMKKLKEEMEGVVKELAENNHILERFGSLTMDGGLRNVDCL
Put plainly: ADP-Glo Kinase Assay, inhibition activity on TBK1. The assay is classed as biochemical. Put shortly: as §1
A general note: ADP-Glo first removes unused ATP, then detects ADP through luciferase.

With `COc1ccc(-c2cnc3[nH]cc(C4=CCN(C(=O)NC5CCCC5)CC4)c3c2)cc1S(=O)(=O)N1CCOCC1` [Example 63, N-cyclopentyl-4-(5-(4-methoxy-3-(morpholinosulfonyl)phenyl)-1H-pyrrolo[2,3-b]pyridin-3-yl)-5,6-dihydropyridine-1(2H)-carboxamide], the IC50 (commonly the midpoint of a concentration-inhibition curve) on IKKε turned out to be 440 nM; on TBK1, 29 nM.

`O=C(NC1CCCC1)N1CC=C(c2c[nH]c3ncc(-c4ccc(CN5CCOCC5)s4)cc23)CC1` [Example 72, N-cyclopentyl-4-(5-(5-(morpholinomethyl)thiophen-2-yl)-1H-pyrrolo[2,3-b]pyridin-3-yl)-5,6-dihydropyridine-1(2H)-carboxamide]: the 50% inhibitory concentration (IC50) at IKKε was determined as 38 nM; at TBK1, 28 nM.

Turning to `CN1CCN(Cc2ccc(-c3cnc4[nH]cc(C5=CCN(C(=O)NC6COC6)CC5)c4c3)cc2)CC1` [Example 78, 4-(5-(4-((4-Methylpiperazin-1-yl)methyl)phenyl)-1H-pyrrolo[2,3-b]pyridin-3-yl)-N-(oxetan-3-yl)-5,6-dihydropyridine-1(2H)-carboxamide], the IC50 on IKKε is 55 nM; against TBK1, 15 nM.

As to `CN1CCN(Cc2ccc(-c3cnc4[nH]cc(C5=CCN(C(=O)NC6COC6)CC5)c4c3)s2)CC1` [Example 79, 4-(5-(5-((4-Methylpiperazin-1-yl)methyl)thiophen-2-yl)-1H-pyrrolo[2,3-b]pyridin-3-yl)-N-(oxetan-3-yl)-5,6-dihydropyridine-1(2H)-carboxamide], the IC50 at IKKε worked out at 28 nM; at TBK1, 320 nM.

With `O=C(NC1COC1)N1CC=C(c2c[nH]c3ncc(-c4ccc(CN5CCOCC5)s4)cc23)CC1` [Example 80, 4-(5-(5-(Morpholinomethyl)thiophen-2-yl)-1H-pyrrolo[2,3-b]pyridin-3-yl)-N-(oxetan-3-yl)-5,6-dihydropyridine-1(2H)-carboxamide], the IC50 at IKKε was found to be 3.4 nM; on TBK1 it was 1.2 nM.

`CC(C)NC(=O)N1CCC(c2c[nH]c3ncc(-c4ccc(CN5CCN(C)CC5)cc4)cc23)=CC1C` (centres unmarked) [Example 86, N-isopropyl-2-methyl-4-(5-(4-((4-methylpiperazin-1-yl)methyl)phenyl)-1H-pyrrolo[2,3-b]pyridin-3-yl)-5,6-dihydropyridine-1(2H)-carboxamide]: the IC50 amounted to 3.5 nM against IKKε and 2.8 nM at TBK1.

Consider `CC(C)NC(=O)N1CCC(c2c[nH]c3ncc(-c4ccc(CN5CCOCC5)s4)cc23)=CC1C` (centres unmarked) [Example 87, N-isopropyl-2-methyl-4-(5-(5-(morpholinomethyl)thiophen-2-yl)-1H-pyrrolo[2,3-b]pyridin-3-yl)-5,6-dihydropyridine-1(2H)-carboxamide], for which the IC50 on IKKε amounted to 1.5 nM; at TBK1, 1 nM.

Consider `CC(C)NC(=O)N1CCC(c2c[nH]c3ncc(-c4ccc(CN5CCN(C)CC5)s4)cc23)=CC1C` (centres unmarked) [Example 88, N-isopropyl-2-methyl-4-(5-(5-((4-methylpiperazin-1-yl)methyl)thiophen-2-yl)-1H-pyrrolo[2,3-b]pyridin-3-yl)-5,6-dihydropyridine-1(2H)-carboxamide], for which the IC50 was 3.2 nM against IKKε and 0.8 nM at TBK1.

As to `CC(C)NC(=O)N1CCC(c2c[nH]c3ncc(-c4ccc(C(=O)N5CCN(C)CC5)cc4)cc23)=CC1C` (centres unmarked) [Example 89, N-isopropyl-2-methyl-4-(5-(4-(4-methylpiperazine-1-carbonyl)phenyl)-1H-pyrrolo[2,3-b]pyridin-3-yl)-5,6-dihydropyridine-1(2H)-carboxamide], the values for the IC50 on IKKε and at TBK1 were 3.3 nM and 2.8 nM, respectively.

Take `CC(C)NC(=O)N1CCC(c2c[nH]c3ncc(-c4ccc(CN5CCOCC5)cc4)cc23)=CC1C` (centres unmarked) [Example 90, N-isopropyl-2-methyl-4-(5-(4-(morpholinomethyl)phenyl)-1H-pyrrolo[2,3-b]pyridin-3-yl)-5,6-dihydropyridine-1(2H)-carboxamide]: the figures for the half-maximal inhibitory concentration (IC50) against IKKε and on TBK1 were 5.5 nM and 5.2 nM, respectively.

As to `CCC(CC)NC(=O)N1CCC(c2c[nH]c3ncc(-c4ccc(CN5CCN(C)CC5)s4)cc23)=CC1C` (centres unmarked) [Example 91, 6-Methyl-4-(5-(5-((4-methylpiperazin-1-yl)methyl)thiophen-2-yl)-1H-pyrrolo[2,3-b]pyridin-3-yl)-N-(pentan-3-yl)-3,6-dihydropyridine-1(2H)-carboxamide], the concentration for half-maximal inhibition (IC50) is 180 nM at IKKε and 46 nM at TBK1.

Turning to `CCC(CC)NC(=O)N1CCC(c2c[nH]c3ncc(-c4ccc(CN5CCOCC5)s4)cc23)=CC1C` (centres unmarked) [Example 92, 6-Methyl-4-(5-(5-(morpholinomethyl)thiophen-2-yl)-1H-pyrrolo[2,3-b]pyridin-3-yl)-N-(pentan-3-yl)-3,6-dihydropyridine-1(2H)-carboxamide], the IC50 came to 130 nM against IKKε and 35 nM against TBK1.

In the case of `CC1C=C(c2c[nH]c3ncc(-c4ccc(CN5CCN(C(=O)OC(C)(C)C)CC5)s4)cc23)CCN1C(=O)NC1CC1` (centres unmarked) [Example 93, tert-Butyl 4-((5-(3-(1-(cyclopropylcarbamoyl)-6-methyl-1,2,3,6-tetrahydropyridin-4-yl)-1H-pyrrolo[2,3-b]pyridin-5-yl)thiophen-2-yl)methyl)piperazine-1-carboxylate], the values for the half-maximal inhibitory concentration (IC50) on IKKε and against TBK1 were 48 nM and 18 nM, respectively.

For the compound `CC1C=C(c2c[nH]c3ncc(-c4ccc(C(=O)N5CCN(C)CC5)cc4)cc23)CCN1C(=O)NC1CC1` (centres unmarked) [Example 94, N-cyclopropyl-2-methyl-4-(5-(4-(4-methylpiperazine-1-carbonyl)phenyl)-1H-pyrrolo[2,3-b]pyridin-3-yl)-5,6-dihydropyridine-1(2H)-carboxamide], the half-inhibitory concentration (IC50) was 10 nM against IKKε and 3.9 nM on TBK1.

Take `CC1C=C(c2c[nH]c3ncc(-c4ccc(CN5CCN(C)CC5)cc4)cc23)CCN1C(=O)NC1CC1` (centres unmarked) [Example 95, N-cyclopropyl-2-methyl-4-(5-(4-((4-methylpiperazin-1-yl)methyl)phenyl)-1H-pyrrolo[2,3-b]pyridin-3-yl)-5,6-dihydropyridine-1(2H)-carboxamide]: the results for the IC50 against IKKε and on TBK1 were 14 nM and 7.4 nM, respectively.

Regarding `CC1C=C(c2c[nH]c3ncc(-c4ccc(CN5CCN(C)CC5)s4)cc23)CCN1C(=O)NC1CC1` (centres unmarked) [Example 96, N-cyclopropyl-2-methyl-4-(5-(5-((4-methylpiperazin-1-yl)methyl)thiophen-2-yl)-1H-pyrrolo[2,3-b]pyridin-3-yl)-5,6-dihydropyridine-1(2H)-carboxamide], the IC50 came to 6.5 nM against IKKε and 3.1 nM at TBK1.

For the compound `CC1C=C(c2c[nH]c3ncc(-c4ccc(CN5CCOCC5)s4)cc23)CCN1C(=O)NC1CC1` (centres unmarked) [Example 97, N-cyclopropyl-2-methyl-4-(5-(5-(morpholinomethyl)thiophen-2-yl)-1H-pyrrolo[2,3-b]pyridin-3-yl)-5,6-dihydropyridine-1(2H)-carboxamide], the IC50 against IKKε turned out to be 2.5 nM; on TBK1 it was 1.7 nM.

`CC1C=C(c2c[nH]c3ncc(-c4ccc(C(=O)N5CCN(C)CC5)cc4)cc23)CCN1C(=O)NC1CCC1` (centres unmarked) [Example 98, N-cyclobutyl-2-methyl-4-(5-(4-(4-methylpiperazine-1-carbonyl)phenyl)-1H-pyrrolo[2,3-b]pyridin-3-yl)-5,6-dihydropyridine-1(2H)-carboxamide]: the results for the IC50 on IKKε and on TBK1 were 22 nM and 15 nM, respectively.

Regarding `CC1C=C(c2c[nH]c3ncc(-c4ccc(CN5CCN(C)CC5)cc4)cc23)CCN1C(=O)NC1CCC1` (centres unmarked) [Example 99, N-cyclobutyl-2-methyl-4-(5-(4-((4-methylpiperazin-1-yl)methyl)phenyl)-1H-pyrrolo[2,3-b]pyridin-3-yl)-5,6-dihydropyridine-1(2H)-carboxamide], the figures for the IC50 against IKKε and against TBK1 were 64 nM and 28 nM, respectively.
